Test results from ChEMBL document CHEMBL4138209, “Inhibitory effects and structural insights for a novel series of coumarin-based compounds that selectively target human CA IX and CA XII carbonic anhydrases” (Eur J Med Chem, 2018).

How the values were obtained:
Carbonic anhydrase 1 = Carbonic anhydrase 1 (Homo sapiens, UniProt P00915); experiment: Inhibition of human carbonic anhydrase 1 incubated for 15 mins prior to testing by stopped-flow CO2 hydration assay
Carbonic anhydrase 2 = Carbonic anhydrase 2 (Homo sapiens, UniProt P00918); experiment: Inhibition of human carbonic anhydrase 2 incubated for 15 mins prior to testing by stopped-flow CO2 hydration assay
Carbonic anhydrase 9 = Carbonic anhydrase 9 (Homo sapiens, UniProt Q16790); experiment: Inhibition of human carbonic anhydrase 9 incubated for 15 mins prior to testing by stopped-flow CO2 hydration assay
Carbonic anhydrase 12 = Carbonic anhydrase 12 (Homo sapiens, UniProt O43570); experiment: Inhibition of human carbonic anhydrase 12 incubated for 15 mins prior to testing by stopped-flow CO2 hydration assay
Sequence of Carbonic anhydrase 12 (O43570 whole entry): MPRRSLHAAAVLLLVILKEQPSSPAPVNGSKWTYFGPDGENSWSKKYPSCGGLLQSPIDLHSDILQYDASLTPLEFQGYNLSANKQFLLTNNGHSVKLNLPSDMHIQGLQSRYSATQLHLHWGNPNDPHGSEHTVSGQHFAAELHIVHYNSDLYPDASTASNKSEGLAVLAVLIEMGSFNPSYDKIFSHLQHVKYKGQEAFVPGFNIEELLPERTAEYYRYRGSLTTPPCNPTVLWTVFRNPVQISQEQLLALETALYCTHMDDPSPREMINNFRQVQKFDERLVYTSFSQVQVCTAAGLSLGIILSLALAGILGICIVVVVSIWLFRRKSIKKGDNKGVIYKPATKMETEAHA

Sequence of Carbonic anhydrase 1 (P00915 whole entry): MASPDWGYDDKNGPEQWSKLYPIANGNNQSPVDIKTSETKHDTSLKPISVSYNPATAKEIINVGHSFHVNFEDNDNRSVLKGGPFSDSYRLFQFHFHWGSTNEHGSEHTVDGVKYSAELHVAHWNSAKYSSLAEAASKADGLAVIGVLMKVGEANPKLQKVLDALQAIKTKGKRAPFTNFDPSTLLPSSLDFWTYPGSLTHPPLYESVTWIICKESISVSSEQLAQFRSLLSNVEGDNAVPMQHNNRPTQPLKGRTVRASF

SMILES | Ki (Carbonic anhydrase 1) [nM] | Ki (Carbonic anhydrase 2) [nM] | Ki (Carbonic anhydrase 9) [nM] | Ki (Carbonic anhydrase 12) [nM]
CC(=O)Oc1cc2ccc(=O)oc2cc1OC(C)=O | > 10000 | > 10000 | 116 | 
O=c1cc(-c2ccc(Cl)cc2)c2ccc(O)cc2o1 | > 10000 | > 10000 | 31.5 | 
O=c1ccc2cc(O)c(O)cc2o1 [ESCULETIN] | > 10000 | > 10000 | 36.4 | 9.3
Cc1cccc(-c2cc(=O)oc3c(C)c(O)ccc23)c1 | > 10000 | > 10000 | 37.4 | 
CC(=O)Oc1ccc2ccc(=O)oc2c1 [7-ACETOXYCOUMARIN] | > 10000 | > 10000 | 40.2 | 573
O=c1ccc2cc(O)ccc2o1 [6-HYDROXYCOUMARIN] | > 10000 | > 10000 | 30.5 | 33.9
Cc1ccc(-c2cc(=O)oc3c(C)c(O)ccc23)cc1 | > 10000 | > 10000 | 38.2 | 
O=C(Oc1ccc2oc(=O)ccc2c1)c1ccccc1 | > 10000 | > 10000 | 29.9 | 
Cc1c(O)ccc2c(-c3ccc(N)cc3)cc(=O)oc12 | > 10000 | > 10000 |  | 
O=C(Oc1cc2ccc(=O)oc2cc1OC(=O)c1ccccc1)c1ccccc1 | > 10000 | > 10000 | 38.4 | 
O=c1cc(-c2ccc([N+](=O)[O-])cc2)c2ccc(O)cc2o1 | > 10000 | > 10000 | 20.3 | 6.5
Cc1c(O)ccc2c(-c3cccc(Cl)c3)cc(=O)oc12 | > 10000 | > 10000 | 36.6 | 
CC(=O)Oc1ccc2oc(=O)ccc2c1 | > 10000 | > 10000 | 23.1 | 
O=c1cc(-c2cccc(Cl)c2)c2ccc(O)cc2o1 | > 10000 | > 10000 | 31 | 
O=c1cc(-c2ccccc2)c2ccc(O)cc2o1 | > 10000 | > 10000 | 47.2 | 90.8
Cc1c(O)ccc2c(-c3ccccc3F)cc(=O)oc12 | > 10000 | > 10000 | 95.9 | 
Cc1ccc(-c2cc(=O)oc3cc(O)ccc23)cc1 | > 10000 | > 10000 | 35.8 | 
O=c1cc(-c2ccccc2F)c2ccc(O)cc2o1 | > 10000 | > 10000 | 31.8 | 
O=C(Oc1ccc2ccc(=O)oc2c1)c1ccccc1 | > 10000 | > 10000 | 51.4 | 814
O=c1cc(-c2ccccc2Cl)c2ccc(O)cc2o1 | > 10000 | > 10000 | 30.8 | 
Cc1cccc(-c2cc(=O)oc3cc(O)ccc23)c1 | > 10000 | > 10000 | 17 | 
Nc1ccc(-c2cc(=O)oc3cc(O)ccc23)cc1 | > 10000 | > 10000 | 21.6 | 
Cc1c(O)ccc2c(-c3ccc(Cl)cc3)cc(=O)oc12 | > 10000 | > 10000 | 35.3 | 
Cc1c(O)ccc2c(-c3ccccc3Cl)cc(=O)oc12 | > 10000 | > 10000 | 27.5 | 
Cc1c(O)ccc2c(-c3ccccc3)cc(=O)oc12 | > 10000 | > 10000 | 39.5 | 402
Cc1c(O)ccc2c(-c3ccc([N+](=O)[O-])cc3)cc(=O)oc12 | > 10000 | > 10000 | 30.9 | 
